Test system: human coronavirus (hCOV)-OC43
Assay type: cell-based

O=C1O[C@H]2[C@@H]3OC(=O)c4cc(O)c(O)c(O)c4-c4c(O)c(O)c5oc(=O)c6c(c(O)c(O)c7oc(=O)c4c5c76)-c4c(cc(O)c(O)c4O)C(=O)OC[C@H]3OC(O)[C@@H]2OC(=O)c2cc(O)c(O)c(O)c2-c2c1cc(O)c(O)c2O (mixture of isomers) [punicalagin]
significantly decreased: hCoV-OC43 envelope protein mRNA level | hCoV-OC43 membrane protein mRNA level | hCoV-OC43 spike protein mRNA level

O=C(C1CC1)N1CCN(Cn2sc3ccccc3c2=O)CC1 [LOC13, 2-[[4-(cyclopropylcarbonyl)-1-piperazinyl]methyl]-1,2-benzisothiazol-3(2H)-one]
significantly decreased: hCoV-OC43 envelope protein mRNA level | hCoV-OC43 membrane protein mRNA level | hCoV-OC43 spike protein mRNA level
